Test results taken from US11566007B2, “Ras inhibitors” (Revolution Medicines, Inc., priority 2019, dated 2023).
Where “and” joins values, the source holds several entries; their conditions need not be identical. Identical values can stand only once. Like-named read-outs stand apart in the source and are kept apart here.

Legend:
KRAS G12V = KRAS G12V (Homo sapiens (Human), UniProt P01116+P62937, G12V); assay: Ras-Raf (BRAF RBD) disruption / FRET / MOA assay, KRAS G12V; assay type: biochemical; conditions: read-out: IC50* KRAS G12V FRET data
Sequence of KRAS G12V (P01116-2 other isoform, or with tags, fused parts or gaps G12V): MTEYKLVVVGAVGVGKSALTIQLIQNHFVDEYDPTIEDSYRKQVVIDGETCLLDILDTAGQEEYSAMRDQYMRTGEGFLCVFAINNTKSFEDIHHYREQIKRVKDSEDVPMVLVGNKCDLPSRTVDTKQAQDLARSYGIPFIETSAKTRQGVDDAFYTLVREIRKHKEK
Sequence of KRAS G12V (P62937 whole entry, canonical isoform): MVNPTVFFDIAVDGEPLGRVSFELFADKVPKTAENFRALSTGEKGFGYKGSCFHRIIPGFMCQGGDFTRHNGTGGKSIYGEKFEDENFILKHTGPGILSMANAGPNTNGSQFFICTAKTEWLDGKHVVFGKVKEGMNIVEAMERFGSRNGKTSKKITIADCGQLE
Description: (§1) The purpose of this biochemical assay is to measure the ability of test compounds to facilitate ternary complex formation between a nucleotide-loaded Ras isoform and cyclophilin A; the resulting ternary complex disrupts binding to a BRAF^RBD construct, inhibiting Ras signaling through a RAF effector.
(§2) Compound is present in plate wells as a 10-point 3-fold dilution series starting at a final concentration of 30 μM. After incubation at 25° C. for 3 hours, a mixture of Anti-His Eu-W1024 and anti-GST allophycocyanin is then added to assay sample wells at final concentrations of 10 nM and 50 nM, respectively, and the reaction incubated for an additional 1.5 hours. […] Compounds that facilitate disruption of a Ras:RAF complex are identified as those eliciting a decrease in the TR-FRET ratio relative to DMSO control wells.
(§3) This protocol may also be executed substituting other Ras proteins or nucleotides.
(§4) The purpose of this biochemical assay was to measure the ability of test compounds to facilitate ternary complex formation between a nucleotide-loaded K-Ras isoform and Cyclophilin A; the resulting ternary complex disrupts binding to a BRAF^RBD construct, inhibiting K-Ras signaling through a RAF effector. Data is reported as IC50 values.
(§5) Compound was present in plate wells as a 10-point 3-fold dilution series starting at a final concentration of 30 μM. After incubation at 25° C. for 3 hours, a mixture of Anti-His Eu-W1024 and anti-GST allophycocyanin was then added to assay sample wells at final concentrations of 10 nM and 50 nM, respectively, and the reaction incubated for an additional 1.5 hours. […] Compounds that facilitate disruption of a K-Ras:RAF complex were identified as those eliciting a decrease in the TR-FRET ratio relative to DMSO control wells.

KRAS G12S = KRAS G12S (Homo sapiens (Human), UniProt P01116+P62937, G12S); assay: Ras-Raf (BRAF RBD) disruption / FRET / MOA assay, KRAS G12S; assay type: biochemical
Sequence of KRAS G12S (P01116-2 other isoform, or with tags, fused parts or gaps G12S): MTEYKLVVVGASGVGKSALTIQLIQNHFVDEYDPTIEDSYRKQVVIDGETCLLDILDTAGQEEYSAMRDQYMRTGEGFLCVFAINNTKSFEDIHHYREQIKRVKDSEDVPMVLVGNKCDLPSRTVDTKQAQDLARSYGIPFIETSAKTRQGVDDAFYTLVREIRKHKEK
Sequence of KRAS G12S (P62937 whole entry): as the sequence (P62937 whole entry, canonical isoform) above
Method in brief: (§6)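 A 10-point, 3-fold dilution series topping at 30 μM final was incubated 3 h at 25° C with the Ras/cyclophilin A/BRAF RBD mixture.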

KRAS G12D = KRAS G12D (Homo sapiens (Human), UniProt P01116+P62937, G12D); assay: Ras-Raf (BRAF RBD) disruption / FRET / MOA assay, KRAS G12D; assay type: biochemical
Sequence of KRAS G12D (P01116-2 other isoform, or with tags, fused parts or gaps G12D): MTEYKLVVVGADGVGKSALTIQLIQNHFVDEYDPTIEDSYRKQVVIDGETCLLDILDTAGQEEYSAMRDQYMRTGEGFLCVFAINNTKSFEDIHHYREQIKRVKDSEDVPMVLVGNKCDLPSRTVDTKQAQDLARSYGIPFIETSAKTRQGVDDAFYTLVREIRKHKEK
Sequence of KRAS G12D (P62937 whole entry): as the sequence (P62937 whole entry, canonical isoform) above
Method in brief: as §6

[1] = tested on: NCI-H358 cells (K-Ras G12C); assay: Potency assay: pERK in NCI-H358 cells; assay type: cell-based, human
Method in brief: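 pERK decrease read by AlphaLISA SureFire p-ERK1/2 or In-Cell Western after 4 h compound exposure at 37 °C, 5% CO2.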

NCI-H358 (K-Ras G12C) = assay: CellTiter-Glo cell viability assay, NCI-H358; assay type: cell-based, human; conditions: NCI-H358, 5-day treatment, class symbols, read-out: Additional H358 Cell Viability assay data (K-Ras G12C, IC50)
Method in brief: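 Compounds dispensed directly onto seeded K-Ras mutant cells; plates read on day 5 after ~30 min equilibration to room temperature, by CellTiter-Glo luminescence. Signal normalized as (sample/mean DMSO)×100, then fitted to a four-parameter logistic curve.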

K-Ras G13C = K-Ras G13C (Homo sapiens (Human), UniProt P01116+P62937, G13C); assay: Ras-Raf (BRAF RBD) disruption / FRET / MOA assay, KRAS G13C; assay type: biochemical; conditions: KRAS G13C; Ras-Raf disruption/FRET/MOA assay; read-out: IC50* KRAS G13C FRET data
Sequence of K-Ras G13C (P01116-2 other isoform, or with tags, fused parts or gaps G13C): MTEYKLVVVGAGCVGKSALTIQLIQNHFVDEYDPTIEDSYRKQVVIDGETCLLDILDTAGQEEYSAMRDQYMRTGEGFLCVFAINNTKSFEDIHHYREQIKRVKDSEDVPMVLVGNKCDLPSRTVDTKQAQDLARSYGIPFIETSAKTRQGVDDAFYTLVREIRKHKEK
Sequence of K-Ras G13C (P62937 whole entry): as the sequence (P62937 whole entry, canonical isoform) above
Description: as §1, §2, §3, §4, §5

KRAS WT = KRAS WT (Homo sapiens (Human), UniProt P01116+P62937); assay: Ras-Raf (BRAF RBD) disruption / FRET / MOA assay, KRAS WT; assay type: biochemical; conditions: read-out: IC50* KRAS WT FRET data
Sequence of KRAS WT (P01116-2 other isoform, or with tags, fused parts or gaps): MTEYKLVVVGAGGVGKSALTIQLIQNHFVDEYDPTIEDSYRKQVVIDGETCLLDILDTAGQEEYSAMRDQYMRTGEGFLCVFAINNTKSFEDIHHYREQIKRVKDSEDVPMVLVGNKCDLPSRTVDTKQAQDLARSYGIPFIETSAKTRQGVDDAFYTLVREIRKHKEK
Sequence of KRAS WT (P62937 whole entry): as the sequence (P62937 whole entry, canonical isoform) above
Description: as §1, §2, §3, §4, §5

K-Ras G12C = K-Ras G12C (Homo sapiens (Human), UniProt P01116+P62937, G12C); assay: Ras-Raf (BRAF RBD) disruption / FRET / MOA assay, KRAS G12C; assay type: biochemical; conditions: KRAS G12C; Ras-Raf disruption/FRET/MOA assay; read-out: IC50* KRAS G12C FRET data
Sequence of K-Ras G12C (P01116-2 other isoform, or with tags, fused parts or gaps G12C): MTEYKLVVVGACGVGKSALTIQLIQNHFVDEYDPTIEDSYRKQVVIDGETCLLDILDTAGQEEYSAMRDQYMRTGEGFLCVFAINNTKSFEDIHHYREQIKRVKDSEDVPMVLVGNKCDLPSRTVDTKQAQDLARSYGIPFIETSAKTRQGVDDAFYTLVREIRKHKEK
Sequence of K-Ras G12C (P62937 whole entry): as the sequence (P62937 whole entry, canonical isoform) above
Description: as §1, §2, §3, §4, §5

[2] = Ras-Raf disruption/FRET/MOA assay; class symbols; read-out: KRAS G12S FRET data IC50
[3] = Ras-Raf disruption/FRET/MOA assay; class symbols; read-out: KRAS G12D FRET data IC50
[4] = H358 KRAS G12C, read-out: pERK EC50
[5] = Homo sapiens, NCI-H358, H358 KRAS G12C, read-out: pERK EC50

Row | Compound | IC50 (KRAS G12V) | IC50 (KRAS G12S; read-out: KRAS G12S FRET data IC50; Ras-Raf disruption/FRET/MOA assay; class symbols) | IC50 (KRAS G12D; read-out: KRAS G12D FRET data IC50; Ras-Raf disruption/FRET/MOA assay; class symbols) | EC50 ([1]; Homo sapiens, NCI-H358, read-out: pERK EC50) | IC50 (NCI-H358 (K-Ras G12C)) | IC50 (KRAS G12S; [2]) | IC50 (KRAS G12D; [3]) | EC50 [1, 4] | IC50 (K-Ras G13C) | IC50 (KRAS WT) | IC50 (K-Ras G12C) | IC50 (NCI-H358 (K-Ras G12C); Homo sapiens, NCI-H358, 120 h) | EC50 [1, 5]
1 | C=CC(=O)N1CCN(C(=O)N(C)[C@H](C(=O)N[C@H]2Cc3nc(cs3)-c3ccc4c(c3)c(c(-c3cccnc3[C@H](C)OC)n4CC(F)(F)F)CC(C)(C)COC(=O)[C@@H]3CCCN(N3)C2=O)C(C)C)CC1 (atropisomer, axis not shown) [Example A464] | 0.01 to 0.1 µM | 0.01 to 0.1 µM | 0.01 to 0.1 µM | < 5 µM | – | – | – | – | – | – | – | – | –
2 | C=CC(=O)N1CCC(F)(C(=O)N(C)[C@H](C(=O)N[C@H]2Cc3cccc(c3)-c3ccc4c(c3)c(c(-c3cccnc3[C@H](C)OC)n4CC)CC(C)(C)COC(=O)[C@@H]3CCCN(N3)C2=O)C(C)C)CC1 (atropisomer, axis not shown) [Example A519] | – | – | – | – | < 0.01 µM | 0.1 to 1 µM | 1 to 10 µM | < 5 µM | – | – | – | – | –
3 | CCn1c(-c2cccnc2COC)c2c3cc(ccc31)-c1cc(O)cc(c1)C[C@H](NC(=O)[C@H](C(C)C)N(C)C(=O)c1ccc(NC(=O)/C=C/CN(C)C)cn1)C(=O)N1CCC[C@H](N1)C(=O)OCC(C)(C)C2 [Example A067] | 1 to 10 µM | – | – | – | – | 1 to 10 µM | 1 to 10 µM | – | 0.01 to 0.1 µM | 1 to 10 µM | 0.01 to 0.1 µM | – | –
4 | CCn1c(-c2cccnc2COC)c2c3cc(ccc31)-c1cc(O)cc(c1)C[C@H](NC(=O)[C@H](C(C)C)N(C)C(=O)C1CN(C(=O)/C=C/CN(C)C)C1)C(=O)N1CCC[C@H](N1)C(=O)OCC(C)(C)C2 [Example A071] | 1 to 10 µM | – | – | – | – | 1 to 10 µM | 1 to 10 µM | – | 0.01 to 0.1 µM | 1 to 10 µM | 0.01 to 0.1 µM | – | –
5 | CCn1c(-c2cccnc2COC)c2c3cc(ccc31)-c1cc(O)cc(c1)C[C@H](NC(=O)[C@H](C(C)C)N(C)C(=O)C1CN(C(=O)C#CCN(C)C)C1)C(=O)N1CCC[C@H](N1)C(=O)OCC(C)(C)C2 [Example A97] | – | – | – | – | – | – | – | – | – | – | – | 0.01 to 0.1 µM | < 5 µM
6 | C=CC(=O)N1CC[C@H](C(=O)N(C)[C@H](C(=O)N[C@H]2Cc3cc(O)cc(c3)-c3ccc4c(c3)c(c(-c3ccc(C5CCN(C)CC5)nc3)n4CC)CC(C)(C)COC(=O)[C@@H]3CCCN(N3)C2=O)C(C)C)C1 [Example A98] | – | – | – | – | – | – | – | – | – | – | – | 0.01 to 0.1 µM | < 5 µM
7 | C=CC(=O)N1CC[C@H](C(=O)N(C)[C@H](C(=O)N[C@H]2Cc3cc(O)cc(c3)-c3ccc4c(c3)c(c(-c3cnn(C)c3)n4CC)CC(C)(C)COC(=O)[C@@H]3CCCN(N3)C2=O)C(C)C)C1 [Example A99] | – | – | – | – | – | – | – | – | – | – | – | 0.01 to 0.1 µM | < 5 µM
8 | C=CC(=O)N1CC[C@H](C(=O)N(C)[C@H](C(=O)N[C@H]2Cc3cc(O)cc(c3)-c3ccc4c(c3)c(c(-c3ccccc3CCN3CCCC3)n4CC)CC(C)(C)COC(=O)[C@@H]3CCCN(N3)C2=O)C(C)C)C1 [Example A100] | > 10 µM | – | – | – | – | > 10 µM | > 10 µM | – | > 10 µM | > 10 µM | 1 to 10 µM | 0.1 to 1 µM | < 5 µM
9 | C=CC(=O)N1CC[C@H](C(=O)N(C)[C@H](C(=O)N[C@H]2Cc3cc(O)cc(c3)-c3ccc4c(c3)c(c(-c3ccccc3CCOC)n4CC)C[C@H](C)COC(=O)[C@@H]3CCCN(N3)C2=O)C(C)C)C1 [Example A215] | 1 to 10 µM and > 10 µM | – | – | – | – | 1 to 10 µM and > 10 µM | > 10 µM | – | > 10 µM | > 10 µM | 0.1 to 1 µM and > 10 µM | – | < 5 µM
10 | C=CC(=O)N1CC[C@]2(CCCN([C@H](C(=O)N[C@H]3Cc4cc(O)cc(c4)-c4ccc5c(c4)c(c(-c4ccccc4CCOC)n5CC)CC(C)(C)COC(=O)[C@@H]4CCCN(N4)C3=O)C(C)C)C2=O)C1 [Example A217] | 1 to 10 µM and > 10 µM | – | – | – | – | 1 to 10 µM and > 10 µM | > 10 µM | – | 1 to 10 µM and > 10 µM | 1 to 10 µM and > 10 µM | 0.1 to 1 µM and > 10 µM | – | < 5 µM
11 | CC#CC(=O)N1CC[C@H](C(=O)N(C)[C@H](C(=O)N[C@H]2Cc3cc(O)cc(c3)-c3ccc4c(c3)c(c(-c3ccccc3CCOC)n4CC)CC(C)(C)COC(=O)[C@@H]3CCCN(N3)C2=O)C(C)C)C1 [Example A221] | 1 to 10 µM and > 10 µM | – | – | – | – | 1 to 10 µM and > 10 µM | > 10 µM | – | > 10 µM and 1 to 10 µM | > 10 µM | 0.1 to 1 µM and > 10 µM | – | < 5 µM
12 | C=CC(=O)N1CCC2(CC1)CCN([C@H](C(=O)N[C@H]1Cc3cc(O)cc(c3)-c3ccc4c(c3)c(c(-c3ccccc3CCOC)n4CC)CC(C)(C)COC(=O)[C@@H]3CCCN(N3)C1=O)C(C)C)C2=O [Example A222] | > 10 µM | – | – | – | – | > 10 µM | > 10 µM | – | 0.1 to 1 µM and > 10 µM | 1 to 10 µM and > 10 µM | 0.1 to 1 µM and 1 to 10 µM | – | < 5 µM
13 | C=CC(=O)N1CC[C@H](C(=O)N(C)[C@H](C(=O)N[C@H]2Cc3cc(O)cc(c3)-c3ccc4c(c3)c(c(-c3ccc(OCC(=O)O)cc3)n4CC)CC(C)(C)COC(=O)[C@@H]3CCCN(N3)C2=O)C(C)C)C1 [Example A223] | 1 to 10 µM and > 10 µM | – | – | – | – | 1 to 10 µM and > 10 µM | > 10 µM | – | > 10 µM | > 10 µM | 0.1 to 1 µM and > 10 µM | > 1 µM | –
14 | CCn1c(-c2cccnc2[C@H](C)OC)c2c3cc(ccc31)-c1cc(O)cc(c1)C[C@H](NC(=O)[C@H](C(C)C)N(C)C(=O)c1nc(NC(=O)/C=C/CN(C)C)cs1)C(=O)N1CCC[C@H](N1)C(=O)OCC(C)(C)C2 [Example A258] | – | – | – | – | 0.1 to 1 µM | 1 to 10 µM | – | < 5 µM | – | – | – | – | –
15 | C=CC(=O)N1CC[C@H](C(=O)N(C)[C@H](C(=O)NC2C[C@H]3CN(CCCO3)c3ccc4c(c3)c(c(-c3cccnc3[C@H](C)OC)n4CC)CC(C)(C)COC(=O)[C@@H]3CCCN(N3)C2=O)C(C)C)C1 (stereo partly shown) [Example A429] | – | – | – | – | > 1 µM | > 10 µM | > 10 µM | – | – | – | > 10 µM | – | –
16 | C=CC(=O)N1CC[C@H](C(=O)N(C)[C@H](C(=O)N[C@H]2Cc3cc(N)cc(c3)-c3ccc4c(c3)c(c(-c3ccccc3CCOC)n4CC)CC(C)(C)COC(=O)[C@@H]3CCCN(N3)C2=O)C(C)C)C1 [Examples A002] | – | – | – | – | – | > 10 µM | > 10 µM | – | – | – | 1 to 10 µM | – | –
